Source: a melting point compilation (Tetko et al.; mined from patent text by program, amines drawn as free bases though some values may be those of a salt)

First: O=C(CCCCCCc1ccccc1)c1c(O)c2cccnc2n(-c2ccccc2)c1=O
Second: O=C(O)CCCCC(=NOCc1ccc(OCc2noc(-c3ccccc3)n2)cc1)c1ccccc1
The melting point of the first is higher: 153 to 154 °C for the first, 88 to 89 °C for the second.

First: COC(=O)c1cc(O)cc(C(=O)OC)c1[N+](=O)[O-]
Second: COc1cc(C(=O)Oc2ccccc2C(C)=O)cc([N+](=O)[O-])c1OC
The melting point of the first is higher: 183 to 186 °C for the first, 108 to 109 °C for the second.

Compared with `CC(C)C1(C)N=C(c2ncc(C3CC3)cc2C(=O)O)NC1=O` (configuration not stated), `CCn1cc(C(=O)O)c(=O)cc1-c1ccc(O)cc1` is higher in melting point: 157 to 163 °C for the first, 243 to 245 °C for the second.

Compared with `CCC1=C(C#N)C(c2ccccc2Cl)c2c[nH]nc2N1` (configuration not stated), `CS(=O)(=O)Nc1cncc(C(=NCCc2ccccc2Cl)NC#N)c1` is lower in melting point: > 300 °C for the first, 205 °C for the second.

Compared with `Cc1ccc2c(c1)C(CCCCN1CCN(c3cccc(Cl)c3)CC1)C(=O)N2` (configuration not stated), `Cc1ccccc1C(=O)NCN1CCN(c2ncccc2C#N)CC1` is higher in melting point: 122 to 124 °C for the first, 124 to 127 °C for the second.

Compared with `CCN(CC)C(=O)c1cc2ccc(C)cc2c(-c2ccccc2Cl)n1`, `CCN(CC)C(=O)c1ccccc1-c1ccc(OC)cc1` is lower in melting point: 162 °C for the first, 46 to 47 °C for the second.

Compared with `O=C(NCCO)c1cccc(-c2nc(=O)c3ccccc3s2)n1`, `Cc1c2sc3ccccc3nc-2c2ccccc2c1=O` is lower in melting point: 214 to 215 °C for the first, 181 °C for the second.

First: N#CCc1c(Cl)nc(-c2ccc([N+](=O)[O-])cc2)n1Cc1ccccc1
Second: Cn1c(=O)c(=NO)nc(-c2ccccc2)c2ccccc21
The melting point of the first is lower: 125 to 128 °C for the first, 239 to 242 °C for the second.

First: CC(C)(C)C(=O)CNC(=O)c1nn(-c2ccc(F)cc2F)c2c1C1CCC2C1 (configuration not stated)
Second: CCOC(=O)NC[C@H]1CN(c2ccc3c(c2)CCCc2cn[nH]c2-3)C(=O)O1
The melting point of the first is lower: 42 to 43 °C for the first, 122 to 126 °C for the second.

First: COc1cc2nc(N3CCN(C(=O)C4CC4)CC3)nc(N)c2cc1OC
Second: COc1cc2cc(C#N)c(Cl)nc2cc1OC
The melting point of the first is higher: 284 to 286 °C for the first, 224 °C for the second.

First: CC(=O)Oc1cccc2c1C(=O)c1c(O)cccc1C2C(=O)C1CCCCC1 (configuration not stated)
Second: CC(=O)SCC(Cc1ccccc1)C(=O)Nc1cc(C(=O)O)ccc1N1CCCC1 (configuration not stated)
The melting point of the first is lower: 154 °C for the first, 217 to 222 °C for the second.

First: CC(C)(C)OC(=O)Oc1nc2c(N)ncnc2n1Cc1ccccc1
Second: Cc1cc(C)c2ncc(C(=O)O)c(-c3ccccc3Cl)c2c1
The melting point of the first is higher: 287 to 289 °C for the first, 234 to 235 °C for the second.

First: CC1CC(=O)N(CCCCN2C(=O)c3ccccc3C2=O)C1=O (configuration not stated)
Second: COc1cc(N)c(Cl)cc1C(=O)N[C@H]1CCN(CCCN2C(=O)c3ccccc3C2=O)C[C@H]1OC (relative stereo)
The melting point of the first is lower: 79 to 80 °C for the first, 208 °C for the second.

Compared with `CC(C)n1nc(-c2sc(NC(=O)COc3ccccc3)nc2-c2ccccc2)ccc1=O`, `COc1ccc(-c2cc(C(=O)Nc3ccccc3)c(=O)n(CC3CC3)n2)cc1` is lower in melting point: 243 to 244 °C for the first, 163 °C for the second.

Compared with `O=C(O)c1cc(OCC(F)(F)F)c(Cl)cc1[N+](=O)[O-]`, `O=C(c1ccc([N+](=O)[O-])c(O)c1)N1CCOCC1` is lower in melting point: 153 to 155 °C for the first, 106 °C for the second.

First: CCCCCCCCCCCCCCC/C=C/C=O
Second: CCCCn1c(=O)c2[nH]cnc2n(CCCC)c1=S
The melting point of the first is lower: 35 °C for the first, 137 °C for the second.

First: CN(C)C=C(C=O)c1cccc(C(F)(F)F)c1
Second: Cc1cc(C#CC=O)nc(Oc2cc(C(F)(F)F)nn2C)c1
The melting point of the first is higher: 128 to 132 °C for the first, 73 °C for the second.

Compared with `COc1ccnc(CCc2nc3cc(-c4ccc(S(=O)(=O)N5CCN(c6ccc(C)cc6)CC5)cc4)cnc3[nH]2)c1`, `Cn1c(-c2ccc(-c3cccnc3)cc2)cnc1[C@H](Cc1ccccn1)N(C=O)c1cc2cc(Br)ccc2o1` is higher in melting point: 150 to 154 °C for the first, 168 to 171 °C for the second.

First: CC(C)(C)c1cc(C=C2SCN(CCO)C2=O)cc(C(C)(C)C)c1O
Second: C=CCc1cc(C=C2SC(=S)NC2=O)cc(CC=C)c1O
The melting point of the first is lower: 131 to 135 °C for the first, 157 to 160 °C for the second.

First: COc1ccc2c(=O)c(-c3ccc(OCC(O)CN4CCOCC4)cc3)coc2c1 (configuration not stated)
Second: COC(=O)CCc1ccc(OCC2CCN(c3ccncc3)CC2)cc1
The melting point of the first is higher: 117 to 118 °C for the first, 96.5 to 98.5 °C for the second.

First: O=c1cc(-c2ccncc2)nc2n1Cc1ccccc1N2
Second: CN1CCN(c2cc(Sc3ccc(Cl)cc3)nc(-c3ccccc3)n2)CC1
The melting point of the first is higher: 315 to 317 °C for the first, 152 to 154 °C for the second.

First: CN(CCOc1ccc(OC(F)(F)F)cc1)CC1(C)Cn2cc([N+](=O)[O-])nc2O1 (configuration not stated)
Second: CC(C)(C)OC(=O)N1CC=C(c2c[nH]c3ccc([N+](=O)[O-])cc23)CC1
The melting point of the first is lower: 86.4 to 89.2 °C for the first, 210 to 212 °C for the second.

First: CSc1ccc(NS(=O)(=O)c2ccc(C)cc2)c([N+](=O)[O-])c1
Second: COc1ccc(S(=O)(=O)Nc2ccccc2NC(=O)c2cccc(O)c2)cc1
The melting point of the first is lower: 116 to 117 °C for the first, 191 to 192 °C for the second.

First: COCc1cc(C(=O)CBr)on1
Second: CCc1noc(-c2ccc(O)cc2)n1
The melting point of the first is lower: 53 to 54 °C for the first, 138 °C for the second.

First: CC(C)[C@H](NC(=O)[C@@H](CSC(=O)c1ccccc1)SC(=O)c1ccccc1)C(=O)N1CCC[C@H]1C(=O)O
Second: CCOC(=O)NC(C(=O)OC)C(c1ccccc1)c1ccccc1 (configuration not stated)
The melting point of the first is lower: 85 to 93 °C for the first, 107 to 109 °C for the second.

Compared with `O=C1CCCC(=O)N1c1cc(Cl)cc(Cl)c1`, `O=c1[nH]c2ccc(Cl)cc2c(=O)o1` is higher in melting point: 172 to 174 °C for the first, 200 °C for the second.

Compared with `COc1ccc(-n2nc(Br)cc2-c2ccc(SC)cc2)cc1`, `COc1ccc(-n2cnc3ccc(-c4nnc(SC)o4)cc32)cc1` is higher in melting point: 144 to 145 °C for the first, 187 to 188 °C for the second.

First: Cc1cccc(C)c1NC(=O)/C=C1\SCC(=O)N1c1ccccc1
Second: Cc1ccccc1NC(=O)Nc1ccc(CC(=O)ON2C(=O)CCC2=O)cc1
The melting point of the first is higher: 228 °C for the first, 211 to 212 °C for the second.

First: N#Cc1cnc2cc(Br)sc2c1Cl
Second: OCc1ncn2cc(Br)sc12
The melting point of the first is higher: 190 to 191 °C for the first, 104 to 105 °C for the second.

First: CCCOc1nsc(N=CN(C)C)c1C#N
Second: Cc1nc(NC(=O)N(C)C)sc1C
The melting point of the first is lower: 117 to 118 °C for the first, 202 to 204 °C for the second.

First: O=S(=O)(NC1C2CCC(C2)C1CO)c1ccccc1 (configuration not stated)
Second: O=C(c1ccccc1)N1CCC2CC(O)(c3ccc(F)cc3)CCC2C1 (configuration not stated)
The melting point of the first is higher: 118 to 120 °C for the first, 84 to 85 °C for the second.

First: COc1ccc(N2CCN(c3c(C)c4c(c(OC)c3C)OC(C)C4)CC2)cc1 (configuration not stated)
Second: C[C@@H]1S[C@@H](C(=O)Nc2ccc(CN3CCCC3)cc2)Cc2cc3c(cc2C1=O)OCO3
The melting point of the first is lower: 109 to 111 °C for the first, 186 to 188 °C for the second.

Compared with `Cc1nc(-c2cccc3c2C2(COc4cc5c(cc42)OCCO5)C(=O)N3C)cs1` (configuration not stated), `O=C(O)Cc1ccc2c(c1)C(=O)c1cc(F)ccc1CO2` is lower in melting point: 219 to 220 °C for the first, 173 to 175 °C for the second.

First: CC(C)(C)Nc1c(Nc2ccc3cn[nH]c3c2)c(=O)c1=O
Second: CCOC(=O)c1c(C)nc(Cl)c([N+](=O)[O-])c1NC(C)(C)C
The melting point of the first is higher: 183 to 185 °C for the first, 35 to 36 °C for the second.

First: COC1=CCC2=C(CCC3C2CCC2(C)C(O)CCC32)C1 (configuration not stated)
Second: CC(=O)C1CCC2C3CCC4CC(O)C(Br)CC4(C)C3CCC12C (configuration not stated)
The melting point of the first is lower: 110 °C for the first, 171 to 175 °C for the second.

Compared with `COc1ccc(Cl)cc1C1=NC(C)(C)CO1`, `COc1cc(Nc2c(C#N)cnc3cc(SCc4ccccc4)c(OC)cc23)c(Cl)cc1Cl` is higher in melting point: 50 to 51 °C for the first, 123 to 125 °C for the second.

Compared with `COC(=O)CNC(=O)CC(O)CBr` (configuration not stated), `CC(C)COC(=O)N[C@H](CC(=O)O)Cc1ccccc1` is higher in melting point: 60 to 61 °C for the first, 95 to 97 °C for the second.

First: Cc1cc(C2=NOC(c3cc(Cl)cc(Cl)c3)(C(F)(F)F)C2)ccc1S(=O)(=O)NCc1ccccn1 (configuration not stated)
Second: CCOC(=O)Cn1c(=O)n(S(=O)(=O)c2ccc(Cl)cc2)c(=O)c2ccccc21
The melting point of the first is lower: 57 to 58 °C for the first, 208 to 209 °C for the second.

First: c1ccc(C2CCc3ccccc3S2)cc1 (configuration not stated)
Second: NC1=NN(c2ccccc2)C(c2ccccc2)C1 (configuration not stated)
The melting point of the first is lower: 45 to 49 °C for the first, 195 to 197 °C for the second.

First: CCCNC(=O)C1CC(=O)N(c2cc(C(F)(F)F)cc(C(F)(F)F)c2)C1 (configuration not stated)
Second: FC(F)(F)c1cc(C(F)(F)F)c(-c2ccc(Cl)cc2)[nH]1
The melting point of the first is higher: 152 to 154 °C for the first, 41 to 43 °C for the second.

First: CCCc1nc2c(N)nc3cc(O)ccc3c2n1CC(C)C
Second: COc1ccccc1-n1c(=O)[nH]c2c(C(N)=O)nc(NC[C@H]3CCCN3)nc21
The melting point of the first is higher: > 265 °C for the first, 155 to 157 °C for the second.

First: CC(=O)c1ccc(C2C(C(=O)c3ccc(C(C)C)cc3)=C(O)C(=O)N2c2ccc(C)nn2)cc1 (configuration not stated)
Second: Cc1ccc(N2C(=O)C(O)=C(C(=NOCC(=O)O)c3ccc(C(C)C)cc3)C2c2ccc(C(C)C)cc2)nn1 (configuration not stated)
The melting point of the first is higher: 259 to 266 °C for the first, 234 °C for the second.

First: Cc1oc(-c2ccccc2)nc1COc1ccc(COc2ccc(C(=O)c3ccccc3)c(O)c2)cc1
Second: O=C(O)C(Cc1ccccc1)Oc1ccc2cc(-c3oc4ccccc4c3Br)ccc2c1Br (configuration not stated)
The melting point of the first is lower: 160 to 161 °C for the first, 206 to 209 °C for the second.

First: C=CCC(CC=C)(C(=O)O)S(=O)(=O)c1ccc(OC)cc1
Second: O=C(O)C1(CS(=O)(=O)c2ccc(Oc3ccccc3)cc2)CCOCC1
The melting point of the first is lower: 114 to 116 °C for the first, 162 to 165 °C for the second.

First: O=C1NN=C(c2cccc([N+](=O)[O-])c2)C2CC12 (configuration not stated)
Second: O=c1ccc2c(-c3cccc([N+](=O)[O-])c3)nccc2[nH]1
The melting point of the first is lower: 220 to 221 °C for the first, > 300 °C for the second.

First: CC(=O)OCC1OC(n2c(=O)sc3cnc(N)nc32)C(OC(C)=O)C1OC(C)=O (configuration not stated)
Second: CCOC(=O)C(=CNc1ccc(F)c(N2CCN(C(=O)OCC)CC2)n1)C(=O)OCC
The melting point of the first is lower: 121 to 123 °C for the first, 144 to 145 °C for the second.

Compared with `CCOC(=O)CCCCC(=O)c1c(CBr)n(C(C)=O)c(=O)n1C(C)=O`, `CCOC(=O)c1nc2n(c(=O)c1O)CCOC2` is higher in melting point: 114 to 115 °C for the first, 172 to 174 °C for the second.

First: CN(Cc1cc[nH]n1)C1CCCN(C(=O)c2ccc(Nc3nccc(Nc4ccc(F)cc4)n3)cc2)C1 (configuration not stated)
Second: CC(C)(C)c1ccc(C(=O)Nc2ccc(OCC(=O)O)cc2)cc1
The melting point of the first is lower: 120 to 140 °C for the first, 179 to 181 °C for the second.

First: CS(=O)(=O)c1ccc(OCc2ccccc2)c(C=O)c1
Second: Nc1ccc(NC(=O)c2ccc(N)cc2O)cc1
The melting point of the first is lower: 129 °C for the first, 235 to 238 °C for the second.

First: N#CCC(O)(Cn1cncn1)c1ccc(Cl)cc1Cl (configuration not stated)
Second: NCCc1ccc(-c2csc(N=C(N)N)n2)o1
The melting point of the first is higher: 217 to 219 °C for the first, 156 to 158 °C for the second.

Compared with `Cn1ncc2c1-c1c(Oc3cccnc3OCCN3CCCC3=O)sc(C(=O)O)c1CC2`, `C=C(C)CC1(OC=C(C)C)CC=C(C)C(NC=O)=C1C` (configuration not stated) is lower in melting point: 202 to 204 °C for the first, 109 °C for the second.
